*1 amine or outer side, *2 acyl side, *3 side chain or, on linkers, in order; H or OH if unused. Where a SMILES comes first, the peptide text is derived from it. Bridges are numbered along the chain shown (N, C = ends). X1 = C=C(N[*:2])c1nc(-c2nc(-c3nc(C(=O)OC)cs3)ccc2C(=O)[*:1])cs1
How the values were obtained:
[1] = target: T1, TLR10 (Homo sapiens, UniProt Q9BXR5); test: Surface plasmon resonance (SPR) binding affinity to TLR10
T1 sequence (Q9BXR5 20-811): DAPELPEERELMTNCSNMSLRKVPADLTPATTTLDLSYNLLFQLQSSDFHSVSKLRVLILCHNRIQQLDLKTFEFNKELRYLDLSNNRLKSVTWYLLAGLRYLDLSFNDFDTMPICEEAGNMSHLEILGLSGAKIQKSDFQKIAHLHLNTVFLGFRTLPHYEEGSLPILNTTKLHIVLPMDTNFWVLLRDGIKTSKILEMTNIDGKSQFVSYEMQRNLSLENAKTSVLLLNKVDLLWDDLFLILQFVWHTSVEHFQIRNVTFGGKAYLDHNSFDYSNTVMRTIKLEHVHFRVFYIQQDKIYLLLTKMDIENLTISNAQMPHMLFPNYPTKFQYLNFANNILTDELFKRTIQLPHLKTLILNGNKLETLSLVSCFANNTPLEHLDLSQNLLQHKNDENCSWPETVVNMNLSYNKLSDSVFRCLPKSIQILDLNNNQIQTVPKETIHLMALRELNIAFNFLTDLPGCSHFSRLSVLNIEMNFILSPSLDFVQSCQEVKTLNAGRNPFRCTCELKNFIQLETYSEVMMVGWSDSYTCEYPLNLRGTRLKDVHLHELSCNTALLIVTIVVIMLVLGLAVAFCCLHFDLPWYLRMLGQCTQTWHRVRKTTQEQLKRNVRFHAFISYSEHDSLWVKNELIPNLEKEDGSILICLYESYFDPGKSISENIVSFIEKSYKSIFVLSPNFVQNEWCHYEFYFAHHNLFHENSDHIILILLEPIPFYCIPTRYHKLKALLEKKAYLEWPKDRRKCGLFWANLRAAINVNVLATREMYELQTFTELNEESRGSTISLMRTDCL
Description: Next, the binding affinity of each of the synthesized thiopeptides (14 types excluding IR1-ct and IR15-ct in FIG. 8) to the target IRAK4 and TLR10 was examined using surface plasmon resonance (SPR). […] Next, using an ADP-Glo-based kinase inhibition assay, the IC50 values of 4 types of thiopeptides for IRAK4 excluding IR1-ct and IR15-ct were evaluated.

[2] = target: T2, TNIK (Homo sapiens, UniProt Q9UKE5); test: Surface plasmon resonance (SPR) binding affinity to TNIK; details: saturated concentration of ATP (1 mM; 15-fold higher than KM)
T2 sequence (Q9UKE5 whole entry): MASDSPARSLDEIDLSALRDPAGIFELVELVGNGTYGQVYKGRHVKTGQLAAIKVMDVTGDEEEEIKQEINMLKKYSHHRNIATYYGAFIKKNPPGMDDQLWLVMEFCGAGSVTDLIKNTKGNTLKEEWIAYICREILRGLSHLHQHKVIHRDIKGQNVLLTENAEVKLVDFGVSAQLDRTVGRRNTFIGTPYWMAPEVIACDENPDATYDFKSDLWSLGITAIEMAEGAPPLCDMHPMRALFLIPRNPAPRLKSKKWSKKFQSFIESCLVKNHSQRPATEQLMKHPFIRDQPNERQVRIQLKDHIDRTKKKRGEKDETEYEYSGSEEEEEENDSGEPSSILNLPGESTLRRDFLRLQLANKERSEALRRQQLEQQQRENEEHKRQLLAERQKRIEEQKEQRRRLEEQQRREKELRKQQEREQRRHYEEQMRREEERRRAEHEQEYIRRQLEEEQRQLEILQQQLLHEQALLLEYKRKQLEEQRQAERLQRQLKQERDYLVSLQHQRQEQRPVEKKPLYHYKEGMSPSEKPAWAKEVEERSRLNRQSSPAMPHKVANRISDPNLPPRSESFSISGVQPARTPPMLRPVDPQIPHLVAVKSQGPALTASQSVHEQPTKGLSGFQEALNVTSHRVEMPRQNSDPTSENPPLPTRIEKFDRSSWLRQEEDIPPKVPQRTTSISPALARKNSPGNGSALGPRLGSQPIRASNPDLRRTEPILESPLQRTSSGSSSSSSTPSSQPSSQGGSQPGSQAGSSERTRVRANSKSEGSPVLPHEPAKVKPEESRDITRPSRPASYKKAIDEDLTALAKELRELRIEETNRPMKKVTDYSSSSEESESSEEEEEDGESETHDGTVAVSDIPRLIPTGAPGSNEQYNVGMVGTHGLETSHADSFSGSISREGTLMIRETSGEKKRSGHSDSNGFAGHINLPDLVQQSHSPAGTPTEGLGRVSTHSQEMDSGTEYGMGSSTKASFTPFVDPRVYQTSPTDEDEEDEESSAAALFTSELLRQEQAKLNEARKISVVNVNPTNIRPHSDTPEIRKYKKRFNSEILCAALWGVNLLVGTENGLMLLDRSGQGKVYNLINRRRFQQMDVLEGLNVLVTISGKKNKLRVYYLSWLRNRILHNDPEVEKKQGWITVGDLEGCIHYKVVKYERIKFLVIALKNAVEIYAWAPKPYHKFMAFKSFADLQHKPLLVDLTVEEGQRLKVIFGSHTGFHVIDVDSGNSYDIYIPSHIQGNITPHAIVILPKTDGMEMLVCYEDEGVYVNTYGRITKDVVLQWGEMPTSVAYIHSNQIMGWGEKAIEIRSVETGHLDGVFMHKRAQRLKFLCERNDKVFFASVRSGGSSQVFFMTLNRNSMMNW
Text: Surface plasmon resonance (SPR) was used to evaluate the binding affinity of the thiopeptide synthesized in Example 2 to TNIK.

[3] = target: T2, TNIK; test: Kinetic analysis (Lineweaver-Burk plots) of TNIK inhibition; format: biochemical; details: role: inhibitor
[4] = target: T3, MST1 (Homo sapiens, UniProt Q13043); test: Kinase selectivity profiling (MST1); format: biochemical; details: concentration of 1 μM
T3 sequence (Q13043 1-487): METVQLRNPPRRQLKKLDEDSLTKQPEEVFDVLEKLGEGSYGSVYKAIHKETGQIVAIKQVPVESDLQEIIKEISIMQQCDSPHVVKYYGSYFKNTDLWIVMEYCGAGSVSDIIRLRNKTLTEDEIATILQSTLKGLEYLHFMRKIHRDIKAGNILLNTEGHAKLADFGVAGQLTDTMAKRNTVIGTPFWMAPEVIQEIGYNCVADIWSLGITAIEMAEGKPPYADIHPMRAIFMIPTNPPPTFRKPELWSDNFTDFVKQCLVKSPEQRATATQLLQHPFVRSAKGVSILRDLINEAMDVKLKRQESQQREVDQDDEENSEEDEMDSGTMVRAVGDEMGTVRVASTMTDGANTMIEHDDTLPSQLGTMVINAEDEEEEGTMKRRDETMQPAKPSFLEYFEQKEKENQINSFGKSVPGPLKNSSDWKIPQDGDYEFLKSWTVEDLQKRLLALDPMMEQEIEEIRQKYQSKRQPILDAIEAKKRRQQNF
Description: (§1) Next, a kinase selectivity profiling experiment was carried out using a panel of various human kinases.

[5] = target: LOK (Homo sapiens, UniProt O94804); test: Kinase selectivity profiling (LOK); format: biochemical; details: concentration of 1 μM
Sequence of LOK (O94804 whole entry): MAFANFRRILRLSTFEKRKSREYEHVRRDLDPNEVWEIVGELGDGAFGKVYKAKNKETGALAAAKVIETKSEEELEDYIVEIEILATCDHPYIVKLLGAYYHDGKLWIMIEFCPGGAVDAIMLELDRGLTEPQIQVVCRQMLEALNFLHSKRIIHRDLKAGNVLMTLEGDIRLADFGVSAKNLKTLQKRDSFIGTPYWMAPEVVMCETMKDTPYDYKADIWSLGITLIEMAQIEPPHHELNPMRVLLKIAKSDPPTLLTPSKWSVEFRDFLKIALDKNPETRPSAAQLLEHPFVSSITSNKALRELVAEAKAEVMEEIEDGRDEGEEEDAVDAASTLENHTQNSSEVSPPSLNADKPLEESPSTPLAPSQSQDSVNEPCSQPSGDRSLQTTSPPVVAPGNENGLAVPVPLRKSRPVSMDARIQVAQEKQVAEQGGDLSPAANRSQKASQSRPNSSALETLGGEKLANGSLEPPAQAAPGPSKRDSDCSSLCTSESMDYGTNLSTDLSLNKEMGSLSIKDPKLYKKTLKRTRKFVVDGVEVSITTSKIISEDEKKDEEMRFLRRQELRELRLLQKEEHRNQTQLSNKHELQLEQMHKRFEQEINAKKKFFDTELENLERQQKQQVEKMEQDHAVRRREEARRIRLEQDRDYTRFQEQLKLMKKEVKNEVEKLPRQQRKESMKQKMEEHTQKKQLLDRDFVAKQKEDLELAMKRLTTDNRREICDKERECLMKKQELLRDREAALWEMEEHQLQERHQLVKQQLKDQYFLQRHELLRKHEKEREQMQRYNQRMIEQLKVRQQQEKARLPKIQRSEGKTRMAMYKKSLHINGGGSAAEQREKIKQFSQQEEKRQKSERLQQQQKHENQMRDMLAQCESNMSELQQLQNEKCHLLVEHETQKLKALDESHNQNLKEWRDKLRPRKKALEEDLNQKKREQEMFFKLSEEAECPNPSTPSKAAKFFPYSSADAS
Description: as §1

[6] = Metabolic stability in human serum (LC/MS); format: in vitro ADME; details: 37 °C
Description: The compounds were incubated with a human serum at 37 °C, and the amount of the residual test substance at various points in time was quantified by LC/MS with respect to an internal standard substance. […] Next, it was examined whether or not the half-lives of the compounds were affected by the reactivity of the Dha residue. The Dha residue may be conjugated with various serum thiols.
In addition, the metabolic stability of all of the 14 types of candidate thiopeptides was examined. The compound was incubated with the human serum at 37 °C, and the amount of the residual thiopeptide at various points in time was quantified by LC/MS with respect to the internal standard substance. The half-life of the thiopeptide for TLR10 was generally as long as 38.2 hours, and the thiopeptide was stable.

[7] = Stability / reactivity towards glutathione (GSH), LC/MS; format: physicochemical
[8] = tested on: HEK293H cells; test: Chloroalkane penetration assay (CAPA) in HEK293H cells; format: cell-based, human; details: chloroalkane-labeled derivatives
Description: (§2) The sub-confluent HCT116 cells were treated with the indicated compounds for 24 hours and the cellular levels of TNIK, TNIK pSer764 (autophosphorylation product), c-Myc, and Axin2 were analyzed by an immunoblotting method (FIG. 7(b)) and RT-qPCR (FIG. 7(c)).
Next, it was confirmed whether or not the obtained compound could also access an intracellular target protein (TNIK is localized in the cytoplasm and the cell nucleus) in a human cell model. First, a chloroalkane penetration assay (CAPA) was performed on 4 types (TP1-ct, TP8-ct, TP14-ct, and TP15-ct) out of the 6 types of chloroalkane-labeled thiopeptide derivatives shown in FIG. 5 in order to measure an uptake degree into the cytoplasm (Peraro, L.; Deprey, K. L.; Moser, M. K.; Zou, Z.; Ball, H. L.; Levine, B.; and Kritzer, J. A. Cell Penetration Profiling Using the Chloroalkane Penetration Assay. J. Am. Chem. Soc. 2018, 140, 11360-11369).

[9] = tested on: TNIK pSer764; test: Immunoblotting of TNIK pSer764 (TNIK autophosphorylation) in HCT116 cells; format: cell-based, human
Description: as §2
Nat. Commun. 2016, 7, 12586).

[10] = tested on: TNIK; test: TNIK protein level in HCT116 cells (immunoblotting); format: cell-based, human
Description: as §2

[11] = tested on: TNIK mRNA; test: TNIK mRNA level in HCT116 cells (RT-qPCR); format: cell-based, human
Description: as §2

[12] = tested on: AXIN2 mRNA; test: AXIN2 mRNA transcription in HCT116 cells (RT-qPCR); format: cell-based, human
Description: as §2

[13] = tested on: MYC mRNA; test: MYC mRNA transcription in HCT116 cells (RT-qPCR); format: cell-based, human
Description: as §2

[14] = tested on: c-Myc; test: c-Myc protein level in HCT116 cells (immunoblotting); format: cell-based, human; details: 20 μM, 24 hours
Description: as §2

[15] = tested on: Axin2; test: Axin2 protein level in HCT116 cells (immunoblotting); format: cell-based, human; details: 20 μM, 24 hours
Description: as §2

SMILES | Kd [1] | binding to TNIK in the presence of ATP [2] | mode of TNIK inhibition [3] | inhibition of MST1 [4] | inhibition of LOK [5] | stability in human serum, in words [6] | residual amount in the presence of GSH ([7]; 10 mM GSH, after 24 hours) | reactivity with GSH, in words ([7]; increasing concentration of glutathione (GSH)) | cytoplasmic uptake (CAPA), in words [8] | level of TNIK pSer764 ([9]; 20 μM of TP15, 24 hours, immunoblotting) | TNIK autophosphorylation, in words (figure legend) ([9]; 24 hours) | overall expression of TNIK, protein level [10] | overall expression of TNIK, mRNA level [11] | transcription of AXIN2 mRNA [12] | transcription of MYC mRNA [13] | protein level of c-Myc [14] | protein level of Axin2 [15]
C=C1NC(=O)[C@H](Cc2c[nH]cn2)NC(=O)[C@H]([C@@H](C)CC)NC(=O)[C@H](C(C)C)NC(=O)[C@H](C(C)C)NC(=O)[C@H](CC(N)=O)NC(=O)[C@H](C(C)C)NC(=O)[C@H](CCCNC(=N)N)NC(=O)[C@H](CO)NC(=O)[C@H](CC(C)C)NC(=O)[C@H](CCC(=O)O)NC(=O)[C@H](CC(C)C)NC(=O)[C@H](CO)NC(=O)[C@H](Cc2c[nH]c3ccccc23)NC(=O)c2ccc(-c3nc(C(=O)OC)cs3)nc2-c2csc1n2 [TL7] (WSLELSRVNVVIH; linker N-C via X1) | 306 nM |  |  |  |  |  |  |  |  |  |  |  |  |  |  |  | 
C=C1NC(=O)c2csc(n2)[C@H]([C@@H](C)O)NC(=O)[C@H](C)NC(=O)[C@H]([C@@H](C)CC)NC(=O)[C@H](CCCNC(=N)N)NC(=O)CNC(=O)[C@H](CCCNC(=N)N)NC(=O)[C@H]([C@@H](C)O)NC(=O)[C@H](CCCNC(=N)N)NC(=O)[C@H]([C@@H](C)CC)NC(=O)[C@H]([C@@H](C)O)NC(=O)[C@H](Cc2c[nH]c3ccccc23)NC(=O)c2ccc(-c3nc(C(=O)OC)cs3)nc2-c2csc1n2 [TP15] |  | bonded to TNIK in the presence of the saturated concentration of ATP | substrate competitive inhibitor | inhibited | inhibited | short half-life | > 95% | stable | efficient cytoplasmic translocation | decreased | inhibition of TNIK autophosphorylation | not TP15 | not TP15 | suppressed in a concentration-dependent manner | suppressed in a concentration-dependent manner | decreased | decreased

From patent US20260365699A1, “Compound Production Method” (The University of Tokyo, priority 2022, published 2026)
